Consider 33 molecules from ChEMBL document CHEMBL1135196, “4-Aminoarylguanidine and 4-aminobenzamidine derivatives as potent and selective urokinase-type plasminogen activator inhibitors” (Bioorg Med Chem Lett, 2002).

In general, pKi refers to −log10 of the Ki, conventionally taken in molar units.

pKi: −log10 of the molar value.

For assay [1], the target named is T1, Coagulation factor X (Homo sapiens, UniProt P00742). Nature of the assay: The compound was evaluated to inhibit the Coagulation factor X.
T1 sequence (P00742 41-179 limits assumed): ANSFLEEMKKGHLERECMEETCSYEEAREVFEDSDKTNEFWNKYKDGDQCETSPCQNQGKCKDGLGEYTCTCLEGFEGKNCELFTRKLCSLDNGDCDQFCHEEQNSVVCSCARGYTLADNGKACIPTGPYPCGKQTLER
T1 sequence (P00742 235-488 limits assumed): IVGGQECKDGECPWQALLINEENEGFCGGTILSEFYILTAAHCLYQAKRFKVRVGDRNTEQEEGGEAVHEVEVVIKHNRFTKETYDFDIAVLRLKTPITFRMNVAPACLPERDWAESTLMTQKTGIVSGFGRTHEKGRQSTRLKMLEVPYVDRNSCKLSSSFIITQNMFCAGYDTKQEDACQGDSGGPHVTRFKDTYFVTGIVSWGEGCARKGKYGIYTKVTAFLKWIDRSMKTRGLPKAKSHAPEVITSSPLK
The next assay concerns the target Plasminogen (Homo sapiens, UniProt P00747). Nature of the assay: Inhibition of plasmin.
Another assay deals with Prothrombin (Homo sapiens, UniProt P00734). In words: Inhibition of thrombin.
Assay [2] has as its target T2, Tissue-type plasminogen activator (Homo sapiens, UniProt P00750). In words: Activation of plasminogen.
For assay [3], the target named is Urokinase-type plasminogen activator (Homo sapiens, UniProt P00749).
Description: Inhibition of urokinase-type plasminogen activator (microPa)
In assay [4] the target is T1, Coagulation factor X. Nature of the assay: Inhibition of coagulation factor X.
Assay [5] concerns the target T2, Tissue-type plasminogen activator. Nature of the assay: Activation of tissue plasminogen.

T2 sequence (P00750 whole entry): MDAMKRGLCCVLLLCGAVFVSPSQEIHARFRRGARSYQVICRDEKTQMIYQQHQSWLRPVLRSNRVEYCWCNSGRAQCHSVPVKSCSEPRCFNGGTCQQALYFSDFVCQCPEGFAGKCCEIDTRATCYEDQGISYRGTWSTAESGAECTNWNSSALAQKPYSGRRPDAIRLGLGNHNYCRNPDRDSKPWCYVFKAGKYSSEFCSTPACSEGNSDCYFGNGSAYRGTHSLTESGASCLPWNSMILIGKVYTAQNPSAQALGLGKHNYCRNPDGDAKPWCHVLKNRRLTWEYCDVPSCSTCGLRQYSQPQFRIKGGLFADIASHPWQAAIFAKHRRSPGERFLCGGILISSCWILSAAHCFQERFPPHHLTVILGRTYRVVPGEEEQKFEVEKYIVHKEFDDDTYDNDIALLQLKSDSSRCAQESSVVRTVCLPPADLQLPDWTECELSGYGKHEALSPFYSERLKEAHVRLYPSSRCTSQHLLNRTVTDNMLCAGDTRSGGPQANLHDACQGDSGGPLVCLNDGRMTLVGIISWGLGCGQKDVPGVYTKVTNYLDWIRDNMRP
Sequence of Plasminogen (P00747 97-580 limits assumed): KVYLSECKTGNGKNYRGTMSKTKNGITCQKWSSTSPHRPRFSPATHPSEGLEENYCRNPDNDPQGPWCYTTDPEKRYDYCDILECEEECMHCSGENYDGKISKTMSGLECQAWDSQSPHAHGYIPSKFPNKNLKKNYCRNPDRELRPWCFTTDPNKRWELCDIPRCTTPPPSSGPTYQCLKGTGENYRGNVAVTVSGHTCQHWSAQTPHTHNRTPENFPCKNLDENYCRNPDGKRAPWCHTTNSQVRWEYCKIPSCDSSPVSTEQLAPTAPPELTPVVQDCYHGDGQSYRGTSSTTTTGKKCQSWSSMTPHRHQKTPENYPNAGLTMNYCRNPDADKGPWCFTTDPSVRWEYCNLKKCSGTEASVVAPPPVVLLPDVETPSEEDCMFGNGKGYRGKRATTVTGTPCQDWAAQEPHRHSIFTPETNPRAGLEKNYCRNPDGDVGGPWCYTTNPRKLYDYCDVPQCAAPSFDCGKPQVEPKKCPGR
Sequence of Plasminogen (P00747 581-810 limits assumed): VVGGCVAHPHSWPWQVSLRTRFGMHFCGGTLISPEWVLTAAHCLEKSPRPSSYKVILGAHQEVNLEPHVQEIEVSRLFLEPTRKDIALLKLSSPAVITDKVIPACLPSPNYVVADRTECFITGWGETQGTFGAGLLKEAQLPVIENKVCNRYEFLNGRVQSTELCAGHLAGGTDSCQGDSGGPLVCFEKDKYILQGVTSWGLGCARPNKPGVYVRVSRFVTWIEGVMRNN

Consider `N=C(N)c1ccc(NC(=O)c2ccc(Cl)cc2O)cc1`, for which the pKi at Coagulation factor X [1] was 5.55; at Plasminogen it was 4.57; on Prothrombin, 5.02; in assay [2] it was 5.62; in assay [3] it was 5.22.
As for `NC(N)=Nc1ccc(NC(=O)c2cccc(-c3ccccc3)c2O)cc1`, the pKi on Coagulation factor X [4] was below 3.33; on Prothrombin, below 3.35; in assay [5], below 4.02.
`N=C(N)c1ccc(NC(=O)c2cccc(-c3ccccc3)c2O)cc1`: the pKi was 3.73 at Coagulation factor X [4], 3.92 at Prothrombin, 4.28 in assay [2] and 5.07 in assay [3].
As for `NC(N)=Nc1ccc(NC(=O)c2ccc(Cl)cc2O)cc1`, the figures for the pKi (on Coagulation factor X [4]; on Prothrombin; in assay [5]) were below 3.33, below 3.35 and below 4.02, respectively.
On to `Cc1cc(I)c(O)c(C(=O)Nc2ccc(C(=N)N)c(F)c2)c1`, for which the pKi at Coagulation factor X [4] was 6.28; in assay [2] it was 5.77.
`NC(N)=Nc1ccc(NC(=O)c2cccc(Cl)c2O)cc1`: the pKi is 3.33 at Coagulation factor X [4], below 3.35 on Prothrombin and below 4.02 in assay [5].
For `NC(N)=Nc1ccc(NC(=O)c2ccccc2O)cc1`, the pKi was 3.98 on Coagulation factor X [4], below 4.12 at Plasminogen, below 3.35 at Prothrombin and below 4.02 in assay [2].
As for `N=C(N)c1ccc(NC(=O)c2cccc(Cl)c2O)cc1`, the pKi is 6.00 on Coagulation factor X [4], 6.00 on Prothrombin, 5.82 in assay [2] and 6.22 in assay [3].
In the case of `CC(C)Oc1c(O)c(C(=O)Nc2ccc(NC(=N)N)cc2)cc2ccccc12`, the values for the pKi (on Coagulation factor X [4]; at Prothrombin; in assay [5]) were 3.62, below 3.35 and below 3.25, respectively.
As to `Cc1cccc(C(=O)Nc2ccc(C(=N)N)cc2)c1O`, the pKi on Coagulation factor X [4] was 5.24; at Plasminogen, 4.74; at Prothrombin, 5.10; in assay [2], 5.41; in assay [3], 5.77.
For the molecule `CCOc1ccc(C(=O)Nc2ccc(C(=N)N)cc2)c(O)c1`, the pKi was 4.43 on Coagulation factor X [1], 4.47 at Prothrombin, 5.70 in assay [2] and 6.19 in assay [3].
Consider `Cc1cccc(C(=O)Nc2ccc(NC(=N)N)cc2)c1O`, for which the pKi was 3.46 at Coagulation factor X [4], below 3.35 on Prothrombin and below 4.02 in assay [5].
In the case of `N=C(N)Nc1ccc(NC(=O)c2cc3ccccc3c(I)c2O)cn1`, the pKi on Coagulation factor X [4] was 4.17; at Plasminogen, below 4.12; at Prothrombin it was 3.51.
For the molecule `N=C(N)Nc1ccc(NC(=O)c2cc3ccccc3c(I)c2O)cc1`, the pKi is below 3.33 on Coagulation factor X [4], below 4.12 on Plasminogen, below 3.35 on Prothrombin and below 4.02 in assay [5].
Regarding `Cc1cc(Br)c(O)c(C(=O)Nc2ccc(C(=N)N)cc2)c1`, the pKi was 6.36 at Coagulation factor X [4], 6.55 at Prothrombin and 6.44 in assay [2].
Turning to `COc1ccc(O)c(C(=O)Nc2ccc(C(=N)N)cc2)c1`, the pKi on Coagulation factor X [1] is 5.28; at Prothrombin, 4.92; in assay [2], 5.03; in assay [3], 5.51.
Turning to `NC(N)=Nc1ccc(NC(=O)c2cc(Br)ccc2O)cc1`, the values for the pKi (on Coagulation factor X [4]; at Prothrombin; in assay [2]) were below 3.33, below 3.35 and below 4.02, respectively.
On to `N=C(N)c1ccc(NC(=O)c2cc(Br)ccc2O)cc1`, for which the pKi is 4.82 on Coagulation factor X [1], 4.54 on Prothrombin and 4.68 in assay [2].
As for `Cc1ccc(O)c(C(=O)Nc2ccc(C(=N)N)cc2)c1`, the pKi on Coagulation factor X [1] is 5.03; at Prothrombin it was 4.85; in assay [2] it was 5.16; in assay [3] it was 5.59.
The like results for `N=C(N)c1ccc(NC(=O)c2cc([N+](=O)[O-])ccc2O)cc1` were, in that order, 4.00, 3.73, 4.03 and 4.36.
As for `[H]/N=C(/N)c1ccc(NC(=O)c2cc(C)cc(I)c2O)cc1Cl`, the pKi at Coagulation factor X [4] was 3.94; on Prothrombin it was 3.61; in assay [2], 3.59.
With `CCOc1ccc(C(=O)Nc2ccc(NC(=N)N)cc2)c(O)c1`, the pKi on Coagulation factor X [4] was below 3.33; on Plasminogen it was below 4.12; on Prothrombin, below 3.35; in assay [5], below 4.02; in assay [3], 5.00.
Consider `N=C(N)Nc1ccc(NC(=O)c2cc3ccccc3c(Br)c2O)cc1`, for which the pKi on Coagulation factor X [4] was below 3.33; at Plasminogen it was below 4.12; on Prothrombin, below 3.35; in assay [5], below 4.02.
In the case of `Cc1ccc(C(=O)Nc2ccc(C(=N)N)cc2)c(O)c1`, the pKi at Coagulation factor X [4] was 5.64; on Plasminogen, 5.22; at Prothrombin, 5.00; in assay [2] it was 5.44; in assay [3] it was 6.00.
Consider `Cc1cc(I)c(O)c(C(=O)Nc2ccc(C(=N)N)cc2)c1`, for which the negative-log Ki (pKi) was 6.34 at Coagulation factor X [4], 6.54 on Plasminogen, 6.42 at Prothrombin and 6.62 in assay [2].
Consider `Cc1cc(I)c(O)c(C(=O)Nc2ccc(NC(=N)N)cc2)c1`, for which the pKi was below 3.33 at Coagulation factor X [4]; below 4.12 at Plasminogen; below 3.35 at Prothrombin; below 3.25 in assay [5]; 5.07 in assay [3].
For `Cc1ccc(C(=O)Nc2ccc(NC(=N)N)cc2)c(O)c1`, the pKi was below 3.33 on Coagulation factor X [4], below 3.35 at Prothrombin and below 4.02 in assay [5].
Take `N=C(N)Nc1ccc(NC(=O)c2cc([N+](=O)[O-])ccc2O)cc1`: the pKi at Coagulation factor X [4] was below 3.33; at Prothrombin, 3.50; in assay [2], below 4.02; in assay [3] it was below 4.12.
In the case of `COc1ccc(O)c(C(=O)Nc2ccc(NC(=N)N)cc2)c1`, the pKi on Coagulation factor X [4] is below 3.33; at Prothrombin, below 3.35; in assay [5], below 4.02; in assay [3] it was 4.70.
In the case of `Cc1cc(Br)c(O)c(C(=O)Nc2ccc(NC(=N)N)cc2)c1`, the pKi on Coagulation factor X [4] is 3.82; on Plasminogen, 3.69; on Prothrombin, 3.90; in assay [5], 3.59.
For the molecule `N=C(N)Nc1ccc(NC(=O)c2cc3ccccc3c(Br)c2O)cn1`, the pKi is 3.63 on Coagulation factor X [4], below 4.12 at Plasminogen and 3.48 at Prothrombin.
Consider `N=C(N)c1ccc(NC(=O)c2ccccc2O)cc1`, for which the pKi at Coagulation factor X [1] is 4.92; on Plasminogen, 4.05; at Prothrombin, 4.66; in assay [5], 5.00; in assay [3], 5.57.
With `Cc1ccc(O)c(C(=O)Nc2ccc(NC(=N)N)cc2)c1`, the pKi is below 3.33 on Coagulation factor X [4], below 4.12 on Plasminogen, below 3.35 on Prothrombin and below 4.02 in assay [2].
